IC50 and Ki data for 23 molecules are collected here from ChEMBL document CHEMBL1909046, “DrugMatrix in vitro pharmacology data”.

Data set [1] has as its target 5-hydroxytryptamine receptor 2B (Homo sapiens, UniProt P41595). It is filed as cell membranes, CHO-K1, Membrane. As to conditions: for Ki: read-out: Ki. On all read-outs here: in other assays of this panel Not Active means under 50% inhibition at 10 µM.
For data set [2], the target named is Sigma non-opioid intracellular receptor 1 (Homo sapiens, UniProt Q99720). In words: DRUGMATRIX: Sigma1 radioligand binding (ligand: [3H] Haloperidol). The conditions noted are these: Not Active = under 50% inhibition at 10 µM; for Ki: read-out: Ki. It is filed as cell membranes, Jurkat, Membrane.
Chain of Sigma non-opioid intracellular receptor 1 (Q99720 whole entry): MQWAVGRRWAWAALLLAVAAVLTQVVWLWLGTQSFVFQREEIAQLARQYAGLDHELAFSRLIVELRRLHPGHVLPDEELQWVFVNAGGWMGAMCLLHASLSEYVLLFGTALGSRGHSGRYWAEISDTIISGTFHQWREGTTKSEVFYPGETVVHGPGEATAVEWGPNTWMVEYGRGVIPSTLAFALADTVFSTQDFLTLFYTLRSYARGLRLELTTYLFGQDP
For data set [3], the target named is T1, C-C chemokine receptor type 4 (Homo sapiens, UniProt P51679). Further: in other assays of this panel Not Active means under 50% inhibition at 10 µM.
T1 sequence (P51679 whole entry): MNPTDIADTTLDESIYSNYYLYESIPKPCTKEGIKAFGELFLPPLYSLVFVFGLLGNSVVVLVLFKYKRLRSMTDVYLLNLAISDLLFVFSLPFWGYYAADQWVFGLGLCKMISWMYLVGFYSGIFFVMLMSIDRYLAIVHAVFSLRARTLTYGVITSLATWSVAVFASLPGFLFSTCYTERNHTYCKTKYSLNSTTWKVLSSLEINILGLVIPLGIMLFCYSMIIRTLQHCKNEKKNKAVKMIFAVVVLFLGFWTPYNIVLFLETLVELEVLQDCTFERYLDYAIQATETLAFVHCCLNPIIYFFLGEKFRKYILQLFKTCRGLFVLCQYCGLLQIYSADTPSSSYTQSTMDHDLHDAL
Type of data set: cell membranes, Membrane. As to conditions: chem-1.

The target of data set [4] is T2, Neuropeptide Y receptor type 1 (Homo sapiens, UniProt P25929). Further: in other assays of this panel Not Active means under 50% inhibition at 10 µM.
T2 sequence (P25929 whole entry): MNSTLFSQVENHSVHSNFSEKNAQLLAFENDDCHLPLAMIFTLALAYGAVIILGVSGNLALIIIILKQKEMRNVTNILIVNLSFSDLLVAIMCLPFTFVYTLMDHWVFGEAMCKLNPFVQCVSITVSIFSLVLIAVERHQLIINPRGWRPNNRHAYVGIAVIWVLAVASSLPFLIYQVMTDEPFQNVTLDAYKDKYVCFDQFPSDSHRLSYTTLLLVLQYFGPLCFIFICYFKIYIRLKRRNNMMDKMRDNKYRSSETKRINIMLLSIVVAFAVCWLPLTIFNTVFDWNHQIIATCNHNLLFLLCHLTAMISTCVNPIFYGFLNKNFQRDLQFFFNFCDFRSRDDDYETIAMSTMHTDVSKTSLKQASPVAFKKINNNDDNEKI
It is filed as cell membranes, Membrane. As to conditions: sk-n-mc.

Data set [5] has as its target Cytochrome P450 2D6 (Homo sapiens, UniProt P10635). As to conditions: bti-tn-5b1-4. Further: in other assays of this panel Not Active means under 50% inhibition at 10 µM.
For data set [6], the target named is Kappa-type opioid receptor (Homo sapiens, UniProt P41145). In words: DRUGMATRIX: Opiate kappa (OP2, KOP) radioligand binding (ligand: [3H] Diprenorphine). It is filed as cell membranes, HEK293, Membrane. As to conditions: hek293; Not Active = under 50% inhibition at 10 µM.
Chain of Kappa-type opioid receptor (P41145 whole entry): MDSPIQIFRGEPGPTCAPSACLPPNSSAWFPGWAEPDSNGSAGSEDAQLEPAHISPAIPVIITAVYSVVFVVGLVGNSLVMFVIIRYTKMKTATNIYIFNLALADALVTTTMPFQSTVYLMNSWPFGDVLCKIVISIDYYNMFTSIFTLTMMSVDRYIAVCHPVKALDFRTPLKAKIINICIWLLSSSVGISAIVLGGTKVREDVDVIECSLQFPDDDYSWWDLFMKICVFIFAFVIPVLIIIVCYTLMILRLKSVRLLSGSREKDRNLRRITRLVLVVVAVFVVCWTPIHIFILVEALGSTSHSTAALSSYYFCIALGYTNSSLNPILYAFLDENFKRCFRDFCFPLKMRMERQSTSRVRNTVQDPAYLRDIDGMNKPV
In data set [7] the target is Estrogen receptor beta (Homo sapiens, UniProt Q92731). The conditions noted are these: sf9. Further: in other assays of this panel Not Active means under 50% inhibition at 10 µM.
Chain of Estrogen receptor beta (Q92731 whole entry): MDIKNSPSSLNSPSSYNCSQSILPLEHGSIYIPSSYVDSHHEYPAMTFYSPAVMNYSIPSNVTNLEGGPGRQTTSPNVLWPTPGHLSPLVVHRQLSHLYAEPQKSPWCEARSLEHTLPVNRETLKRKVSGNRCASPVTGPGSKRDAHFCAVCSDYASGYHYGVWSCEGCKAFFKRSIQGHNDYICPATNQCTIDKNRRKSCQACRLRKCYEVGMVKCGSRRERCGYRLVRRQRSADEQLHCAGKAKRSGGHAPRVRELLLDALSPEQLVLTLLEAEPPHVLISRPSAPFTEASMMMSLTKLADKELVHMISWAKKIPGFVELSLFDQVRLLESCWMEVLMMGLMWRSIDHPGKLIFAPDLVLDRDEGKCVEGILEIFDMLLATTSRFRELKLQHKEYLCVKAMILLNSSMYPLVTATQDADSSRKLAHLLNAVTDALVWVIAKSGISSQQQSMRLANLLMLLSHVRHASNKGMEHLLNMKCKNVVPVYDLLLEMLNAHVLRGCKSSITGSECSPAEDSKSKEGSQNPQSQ

Chain of Cytochrome P450 2D6 (P10635 whole entry): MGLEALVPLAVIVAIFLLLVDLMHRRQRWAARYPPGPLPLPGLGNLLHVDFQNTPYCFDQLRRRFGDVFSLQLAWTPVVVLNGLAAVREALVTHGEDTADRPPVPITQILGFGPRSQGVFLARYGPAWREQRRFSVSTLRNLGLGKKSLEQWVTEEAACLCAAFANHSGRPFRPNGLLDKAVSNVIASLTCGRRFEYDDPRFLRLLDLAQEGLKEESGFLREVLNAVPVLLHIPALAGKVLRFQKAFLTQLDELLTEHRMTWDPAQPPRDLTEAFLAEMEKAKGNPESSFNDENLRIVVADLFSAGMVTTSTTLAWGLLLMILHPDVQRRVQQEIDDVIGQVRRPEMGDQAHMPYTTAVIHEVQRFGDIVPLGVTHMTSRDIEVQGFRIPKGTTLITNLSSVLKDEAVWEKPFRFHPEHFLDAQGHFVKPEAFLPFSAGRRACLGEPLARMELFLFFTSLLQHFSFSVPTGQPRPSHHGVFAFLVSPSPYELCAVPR
Chain of 5-hydroxytryptamine receptor 2B (P41595 whole entry): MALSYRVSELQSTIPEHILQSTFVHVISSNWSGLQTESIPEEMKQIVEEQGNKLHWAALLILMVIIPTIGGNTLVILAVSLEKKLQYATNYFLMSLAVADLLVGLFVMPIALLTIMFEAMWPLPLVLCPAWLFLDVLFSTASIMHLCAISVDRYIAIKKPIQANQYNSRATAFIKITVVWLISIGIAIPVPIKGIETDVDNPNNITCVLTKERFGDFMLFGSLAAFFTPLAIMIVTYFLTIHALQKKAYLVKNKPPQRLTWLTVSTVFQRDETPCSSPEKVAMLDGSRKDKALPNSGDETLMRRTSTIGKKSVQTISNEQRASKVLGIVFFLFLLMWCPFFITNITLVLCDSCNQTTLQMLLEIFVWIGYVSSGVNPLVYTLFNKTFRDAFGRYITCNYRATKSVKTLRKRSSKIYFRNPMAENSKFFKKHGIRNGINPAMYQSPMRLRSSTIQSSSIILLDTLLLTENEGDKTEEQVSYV

By IC50 is commonly meant the concentration that inhibits the measured activity by half. One may read the Ki as the equilibrium dissociation constant of an inhibitor or competing ligand from its target. For `O=C/C=C/c1ccccc1`, the 50% inhibitory concentration (IC50) result in data set [1] (cho-k1), in data set [2] (jurkat), in data set [3], in data set [4] and in data set [5] was “Not Active” in each case. For the same molecule, the inhibition constant Ki entry in data set [5] was “Not Active”.

As for `COc1ccc(C(=O)N2CCCC2=O)cc1`, the IC50 entry in data set [1] (cho-k1), in data set [2] (jurkat), in data set [3], in data set [4], in data set [6] and in data set [5] was “Not Active” throughout. Besides, the Ki entry in data set [5] is “Not Active”.

Regarding `CC[C@H](C)[C@H]1O[C@]2(C=C[C@@H]1C)C[C@@H]1C[C@@H](C/C=C(\C)[C@@H](O[C@H]3C[C@H](OC)[C@@H](O[C@H]4C[C@H](OC)[C@@H](O)[C@H](C)O4)[C@H](C)O3)[C@@H](C)/C=C/C=C3\CO[C@@H]4[C@H](O)C(C)=C[C@@H](C(=O)O1)[C@]34O)O2.CO[C@H]1C[C@H](O[C@H]2[C@H](C)O[C@@H](O[C@@H]3/C(C)=C/C[C@@H]4C[C@@H](C[C@]5(C=C[C@H](C)[C@@H](C(C)C)O5)O4)OC(=O)[C@@H]4C=C(C)[C@@H](O)[C@H]5OC/C(=C\C=C\[C@@H]3C)[C@]54O)C[C@@H]2OC)O[C@@H](C)[C@@H]1O` [ABAMECTIN], the IC50 entry in data set [1] (cho-k1), in data set [2] (jurkat), in data set [3], in data set [4], in data set [6] and in data set [5] was “Not Active” throughout. Further, in data set [5], the Ki entry is “Not Active”.

Turning to `Cc1nnc2n1-c1ccc(Cl)cc1C(c1ccccc1)=NC2` [ALPRAZOLAM], the IC50 result in data set [1] (cho-k1), in data set [2] (jurkat), in data set [3], in data set [4], in data set [5] and in data set [7] was “Not Active” each time. In data set [5], the Ki result is recorded as “Not Active”.

As to `Cn1c(=O)c2[nH]cnc2n(C)c1=O.Cn1c(=O)c2[nH]cnc2n(C)c1=O.NCCN` [AMINOPHYLLINE], the IC50 entry in data set [1] (cho-k1), in data set [2] (jurkat), in data set [3], in data set [4], in data set [6] and in data set [5] was “Not Active” throughout. In addition, the inhibitory constant (Ki) result in data set [5] was “Not Active”.

As for `CC1(C)S[C@@H]2[C@H](NC(=O)[C@H](N)c3ccccc3)C(=O)N2[C@H]1C(=O)O` [AMPICILLIN], the IC50 result in data set [1] (cho-k1), in data set [2] (jurkat), in data set [3], in data set [4], in data set [6] and in data set [5] was “Not Active” each time. For the same molecule, the inhibition constant (Ki) entry in data set [5] was “Not Active”.

Turning to `COc1ccc2cc3[n+](cc2c1OC)CCc1cc2c(cc1-3)OCO2.[Cl-]` [BERBERINE CHLORIDE], the IC50 was 3.44 µM in data set [1] (read-out: IC50); 1.29 µM in data set [2] (read-out: IC50); “Not Active” in data set [3]; “Not Active” in data set [4]; “Not Active” in data set [6]. Also, the results for the inhibition constant Ki in data set [1] and in data set [2] were 2.19 µM and 0.542 µM, respectively.

Take `O=C(O)CCNC(=O)c1ccccc1` [BETAMIPRON]: the IC50 entry in data set [1] (cho-k1), in data set [2] (jurkat), in data set [3], in data set [4], in data set [6] and in data set [5] was “Not Active” in each case. Further, in data set [5], the inhibition constant Ki entry was “Not Active”.

As for `COc1cc(N)c(Cl)cc1C(=O)NC1CCN(CCCOc2ccc(F)cc2)CC1OC` (centres undefined) [CISAPRIDE], the concentration for half-maximal inhibition (IC50) in data set [2] (read-out: IC50) is 0.994 µM; in data set [3] it was “Not Active”; in data set [4] it was “Not Active”; in data set [6], “Not Active”. For the same molecule, the inhibitory constant (Ki) in data set [2] is 0.418 µM.

As for `Nc1ccn([C@@H]2O[C@H](CO)[C@@H](O)[C@@H]2O)c(=O)n1` [CYTARABINE], the IC50 entry in data set [1] (cho-k1), in data set [2] (jurkat), in data set [3], in data set [4], in data set [6] and in data set [5] was “Not Active” each time. The Ki entry in data set [5] is “Not Active”.

For `C[C@@H]1C[C@H]2[C@@H]3CCC4=CC(=O)C=C[C@]4(C)[C@@]3(F)[C@@H](O)C[C@]2(C)[C@@]1(O)C(=O)CO` [DEXAMETHASONE], the IC50 result in data set [1] (cho-k1), in data set [2] (jurkat), in data set [3], in data set [4] and in data set [6] was “Not Active” throughout.

Take `CN(C)CC[C@@H](c1ccc(Cl)cc1)c1ccccn1` [DEXCHLORPHENIRAMINE]: the 50% inhibitory concentration (IC50) result in data set [1] (cho-k1) was “Not Active”; in data set [2] (read-out: IC50), 1.66 µM; in data set [3], “Not Active”; in data set [4], “Not Active”; in data set [6], “Not Active”; in data set [5], “Not Active”. Further, the inhibition constant (Ki) in data set [2] was 0.697 µM; in data set [5] it was “Not Active”.

As for `OC(CCCN1CCCCC1)(c1ccccc1)c1ccccc1` [DIPHENIDOL], the half-maximal inhibitory concentration (IC50) entry is “Not Active” in data set [1] (cho-k1); 0.256 µM in data set [2] (read-out: IC50); “Not Active” in data set [3]; “Not Active” in data set [4]; “Not Active” in data set [6]. Also, the inhibitory constant (Ki) in data set [2] worked out at 0.108 µM.

For `CC[C@H]1CN2CCc3cc(OC)c(OC)cc3[C@@H]2C[C@@H]1C[C@H]1NCCc2cc(OC)c(OC)cc21` [EMETINE], the IC50 result in data set [1] (cho-k1), in data set [2] (jurkat), in data set [3], in data set [4], in data set [6] and in data set [5] was “Not Active” each time. For the same molecule, the Ki entry in data set [5] is recorded as “Not Active”.

On to `CCC1(C)CC(=O)NC1=O` (centres undefined) [ETHOSUXIMIDE], for which the IC50 result in data set [1] (cho-k1), in data set [2] (jurkat), in data set [3], in data set [4], in data set [6] and in data set [5] was “Not Active” in each case. In data set [5], the Ki entry is listed as “Not Active”.

In the case of `C=CCc1ccc(O)c(OC)c1` [EUGENOL], the concentration for half-maximal inhibition (IC50) entry in data set [1] (cho-k1), in data set [2] (jurkat), in data set [3], in data set [4], in data set [6] and in data set [5] was “Not Active” each time. The Ki result in data set [5] was “Not Active”.

Turning to `CC(C)(C)NC(=O)[C@H]1CC[C@H]2[C@@H]3CC[C@H]4NC(=O)C=C[C@]4(C)[C@H]3CC[C@]12C` [FINASTERIDE], the IC50 result in data set [1] (cho-k1), in data set [2] (jurkat), in data set [3], in data set [4], in data set [6] and in data set [5] was “Not Active” each time. Besides, the inhibitory constant (Ki) entry in data set [5] is on record as “Not Active”.

For the molecule `CC(C)=CCC/C(C)=C/CO` [GERANIOL], the IC50 entry in data set [1] (cho-k1), in data set [2] (jurkat), in data set [3], in data set [4] and in data set [6] was “Not Active” each time.

With `N=C(N)NC(=O)Cc1c(Cl)cccc1Cl` [GUANFACINE], the IC50 in data set [1] (read-out: IC50) is 2.1 µM; in data set [2] (jurkat), “Not Active”; in data set [3] it was “Not Active”; in data set [4], “Not Active”; in data set [6], “Not Active”; in data set [5] it was “Not Active”. Also, the inhibitory constant (Ki) in data set [1] is 1.34 µM; in data set [5] it was “Not Active”.

With `NNc1nncc2ccccc12` [HYDRALAZINE], the concentration for half-maximal inhibition (IC50) result in data set [1] (cho-k1), in data set [2] (jurkat), in data set [3], in data set [4], in data set [6] and in data set [5] was “Not Active” throughout. Further, the Ki result in data set [5] is on record as “Not Active”.

With `C#CC1(O)CC[C@H]2[C@@H]3CCC4=CC(=O)CC[C@@H]4[C@H]3CC[C@@]21CC` (some centres undefined) [NORGESTREL], the IC50 result in data set [1] (cho-k1), in data set [2] (jurkat), in data set [3], in data set [4], in data set [6] and in data set [5] was “Not Active” each time. The Ki entry in data set [5] is recorded as “Not Active”.

As to `COC(=O)Nc1nc2ccc([S+]([O-])c3ccccc3)cc2[nH]1` (centres undefined) [OXFENDAZOLE], the half-maximal inhibitory concentration (IC50) entry in data set [1] (cho-k1), in data set [2] (jurkat), in data set [3], in data set [4], in data set [6] and in data set [5] was “Not Active” in each case. Further, the inhibitory constant (Ki) result in data set [5] is listed as “Not Active”.

`CC(C)c1cccc(C(C)C)c1O` [PROPOFOL]: the half-maximal inhibitory concentration (IC50) was 5.5 µM in data set [1] (read-out: IC50); “Not Active” in data set [2] (jurkat); “Not Active” in data set [3]; “Not Active” in data set [4]; “Not Active” in data set [7]. The Ki in data set [1] stood at 3.5 µM.
